Test results: article PMC11542593, “Vascular endothelial growth factor receptor 2 as a potential host target for the inhibition of enterovirus replication” (Journal of Virology, 2024)

Legend:
EV-A71 [1] = assay: Cytopathic effect (CPE) inhibition assay in RD cells; type: cell-based, Human enterovirus A71; conditions: Enterovirus A, EVA71, RD, read-out: EC50, compound concentration required to achieve 50% protection from virus-induced cytopathogenicity
CVA10 = assay: Antiviral activity against CVA10 in RD cells (RT-qPCR, TCID50); type: cell-based, coxsackievirus A10; conditions: 10 µM, 0.1 MOI, 24 h
Experimental: Detection of cellular mRNA expression and viral load was performed as described previously ([24]). In brief, the infected or mock-infected cells were lysed and applied to total RNA extraction by using the MiniBEST Universal RNA Extraction Kit (TaKaRa, Code No.9767). Viral RNA in the supernatant was extracted with the MiniBEST Viral RNA Extraction Kit (TaKaRa, Code No.9766). Reverse transcription was performed using the PrimeScript RT reagent Kit (TaKaRa, Code No.PR037A) with an oligo (dT) primer. The resultant cDNAs were used for qPCR assay with the Light Cycler 480 SYBR Green I Master Mix (Roche) to measure the mRNA expression level of cellular genes or viral load in supernatants. The relative viral gene copy was determined by RT-qPCR, using GAPDH as an internal reference.
The viral titer in the indicated samples was determined by TCID50 assay as described previously ([25]). Briefly, serially diluted samples from 10^−1 to 10^−8 in DMEM were inoculated to RD cells, BGMK cells, or MRC-5 in 96‐well plates. The cells were then incubated for 2 to 3 days at 37°C. TCID50 was calculated by counting the wells with cytopathic effect in infected cells using the Reed–Muench method.
The viral gene copy in the cell lysate is normalized with the transcript of GAPDH and presented. Viral titers were also detected by TCID50 assay. […] All experiments were independently repeated thrice.

EV-A71 [2] = assay: Virus attachment/entry assay in RD cells; type: cell-based, Human enterovirus A71; conditions: 10 µM, MOI 5
Experimental: After 2 hpi, the infectious inoculum was removed, and cell lysates were collected. The intracellular viral RNA load was then determined using RT-qPCR analysis. […] The cell lysates were then collected to detect the intracellular viral gene copy by RT-qPCR analysis.
Fig. S5. […] (A) EV-A71 inactivation assay. […] (B) EV-A71 attachment assay. […] After 2 hpi, the infectious inoculum was removed and cells were washed again. The intracellular viral RNA load was then determined using RT-qPCR analysis. (C) EV-A71 entry assay.

[3] = system: IL-6, IL-8, TNF-α mRNA expression; assay: EV-A71-induced pro-inflammatory cytokine mRNA expression in Huh7 and THP-1 cells; type: cell-based; conditions: 10 µM, Huh7 (MOI 2) and THP-1 (MOI 5) cells, 12 hpi

## Cc1ccc(Nc2nccc(N(C)c3ccc4c(C)n(C)nc4c3)n2)cc1S(N)(=O)=O [Pazopanib]
EV-A71 [1]
  EC50: 890 ± 20 nM
CVA10
  viral load and viral titer of CVA10 in cell lysates and supernatants: significantly reduced
EV-A71 [2]
  effect on viral attachment/entry (EV-A71 mRNA levels in cell lysates): did not affect the viral attachment/entry stage
[3]
  EV-A71-induced pro-inflammatory cytokine activation: significantly suppressed
